We go through 1 molecule from patent US20240269170A1, “Treatment of Inflammatory Conditions or Diseases” (Queen Mary University of London, priority 2021, published 2024).

In the test the test system is K/B×N serum induced arthritis in C57BL/6 mice. Kind of test: Sustained K/B×N serum induced arthritis, transfer of monocytes from arthritic mice incubated with MCTR3. It is filed as in vivo, mouse. The conditions noted are these: monocytes incubated with 10 μM RG108 for 15 min before 1 nM MCTR3. The procedure:
(C-D) K/B×N serum (100 μL, i.p.) was administered to C57BL/6 mice on day 0, 2 and 9 to induce and prolong inflammatory arthritis and, on day 12, mice were treated i.v. with 2×10^6 monocytes isolated from arthritic mice and incubated with either vehicle (PBS+0.1% EtOH) or 1 nM MCTR3 for 90 min at 37° C. Disease course was monitored daily by assessing C) clinical scores and D) oedema. Results are mean±SEM. and expressed as percent change from day of treatment. n=9 per group from two distinct experiments. (E) On day 22 hind paws were harvested joints were fixed, sectioned, stained using H&E stain and leukocyte infiltration evaluated. Top and centre panels present representative images from each experimental group; bottom panel Quantitation of the scores in each of the group. Results are mean±SEM. n=8 mice per group. Statistical differences were evaluated using Mann-Whitney U test. IFP=intrapatellar fat, M=meniscus, TB=Tibia, PF=Pannus formation, arrows denote leukocyte infiltration. (F-G) Paws were harvested 10 days after treatment and lipid mediator profiles were determined using LC-MS/MS-based lipid mediator profiling and evaluated using PLS-DA. (F) scores plot with highlighted regions denoting the clusters representing cells from each group (G) VIP scores for top 15 mediators. Each dot in the score plot represents a separate mouse.
FIG. 4: Regulation of joint reparative pathways in mice receiving MCTR3-trained monocytes. K/B×N serum (100 μL, i.p.) was administered to C57BL/6 mice on day 0, 2 and 9 to induce and prolong inflammatory arthritis and, on day 12, mice were treated i.v. with 2×10^6 monocytes isolated from arthritic mice and incubated with either vehicle (PBS+0.1% EtOH) or 1 nM MCTR3 for 90 min. (A-C) On day 22 hind paws were harvested, fixed, and stained to evaluate A) proteoglycan content using Safranin-O staining; B) Col 2 and C) Col X expression was evaluated using immunofluorescence. Left panels present representative images from each experimental group, right panels provide a quantitative evaluation of the staining. Results are expressed as percent change vs Monocyte group. n=7-8 mice per group. Statistical differences were evaluated using Wilcoxon signed rank test. (D-I) Hind paws were also collected on day 22 to evaluate the expression of the indicated genes was evaluated using quantitative realtime PCR. Results are from n=5 mice per group. Statistical differences were evaluated using Mann Whitney-U test.
FIG. 5: MCTR3 reprograms the arthritic monocyte-derive macrophage transcriptome. A-B) Arthritis was induced and prolonged in C57BL/6 mice by administering 100 μL K/B×N serum i.p. on day 0, 2 and 9. Mice were treated on day 12 i.v. with 2×10^6 monocytes isolated from arthritic mice and incubated either with vehicle (PBS+0.1% DMSO) or 10 μM RG108, a DNMT inhibitor, for 15 min and then with a vehicle (PBS+0.1% EtOH) or 1 nM MCTR3 for 90 min (37° C.). Disease course was monitored daily by assessing A) clinical scores and B) oedema. Results are mean±SEM and expressed as percent change from day of treatment. n=10 mice per group. Statistical differences were evaluated using Two-way ANOVA. (C-E) K/B×N serum (100 μL, i.p.) was administered to mice on days 0, 2 and 9 to induce and prolong inflammatory arthritis. On day 12, mice were treated i.v. with 2×10^6 monocytes isolated from arthritic mice that were previously incubated with either vehicle (PBS+0.1% EtOH) or 1 nM MCTR3 for 90 min. Cells were isolated from paw joints on day 22, sorted for CD45^+ cells and single cell RNA sequencing was performed. […] Results are from n=4 mice per group. (F-G) Monocytes were isolated from human healthy volunteers, these cells were then incubated with GM-CSF (7 days, 37° C.) then with either Vehicle or MCTR3 (1 nM, 37° C.). Cells were lysed and the phosphoproteome determined using mass spectrometry. […]

For `O=C(O)C(Cc1c[nH]c2ccccc12)N1C(=O)c2ccccc2C1=O` (centres unmarked) [RG108], the “protective actions of MCTR3 (ability of reprogrammed monocytes to regulate joint inflammation)” value is “abolished”. In addition, the “ability of MCTR3 to upregulate Arg-1 in PKH67+ CD64+ cells in vivo” value (day 22) is given as “reversed”.
